Laboratory results: ChEMBL document CHEMBL6153087, “Emoquine-1: A Hybrid Molecule Efficient against Multidrug-Resistant Plasmodium Parasites, Including the Artemisinin-Resistant Quiescent Stage, and Also Active In Vivo” (J Med Chem, 2025)
Calls of active or inactive are those of the source. The calls are words filed in the database; no cut-off is given here.

Key:
Plasmodium falciparum [1] = test: Antiplasmodial activity against artemisinin-resistant Plasmodium falciparum F32 assessed as inhibition of parasite growth incubated for 48 hrs of SYBR green fluorescence-based method; format: functional, organism-based; conditions: F32, 48 h
Plasmodium falciparum [2] = test: Antiplasmodial activity against chloroquine-resistant Plasmodium falciparum clinical isolate IPC8262 assessed as inhibition of parasite growth incubated for 48 hrs of SYBR green fluorescence-based method; format: functional, organism-based
Plasmodium falciparum [3] = test: Antiplasmodial activity against chloroquine-resistant Plasmodium falciparum clinical isolate IPC8461 assessed as inhibition of parasite growth incubated for 48 hrs of SYBR green fluorescence-based method; format: functional, organism-based
Plasmodium falciparum [4] = test: Antiplasmodial activity against atovaquone-resistant Plasmodium falciparum clinical isolate Q120 assessed as inhibition of parasite growth incubated for 48 hrs of SYBR green fluorescence-based method; format: functional, organism-based
[5] = Cytotoxicity against African green monkey Vero cells assessed as cell metabolic activity incubated for 48 hrs by MTT assay; format: toxicity, cell-based; conditions: chlorocebus sabaeus
[6] = Selectivity index, ratio of CC50 for cytotoxicity against African green monkey Vero cells to IC50 for antiplasmodial activity against artemisinin-resistant Plasmodium falciparum F32; format: toxicity, cell-based; conditions: read-out: Ratio CC50/IC50
Plasmodium falciparum [7] = test: Antiplasmodial activity against synchronized ring stage artemisinin-resistant Plasmodium falciparum F32 assessed as number of days required to reach 3% initial parasitemia by measuring median recrudescence time at 7 uM incubated for 48 hrs by recrudescence assay; format: functional
Plasmodium falciparum [8] = test: Antiplasmodial activity against synchronized ring stage artemisinin-sensitive Plasmodium falciparum F32 assessed as number of days required to reach 3% initial parasitemia by measuring median recrudescence time at 7 uM incubated for 48 hrs by recrudescence assay; format: functional
Plasmodium falciparum [9] = test: Antiplasmodial activity against synchronized ring stage artemisinin-resistant Plasmodium falciparum F32 assessed as decrease in parasite recrudescence by measuring time required for parasites to reach initial parasitemia at 1 uM incubated for 48 hrs by recrudescence assay; format: functional
Plasmodium falciparum [10] = test: (§1) Antiplasmodial activity against synchronized ring stage DHA-induced quiescent artemisinin-resistant Plasmodium falciparum F32 assessed as decrease in parasite recrudescence by measuring time required for parasites to reach initial parasitemia at 1 uM pretreated with dihydroartemisinin for 6 hrs followed by compound administration for 48 hrs in presence of dihydroartemisinin by quiescent-stage survival assay; format: functional
Plasmodium falciparum [11] = test: Antiplasmodial activity against synchronized ring stage artemisinin-resistant Plasmodium falciparum F32 assessed as number of days required to reach 3% initial parasitemia by measuring median recrudescence time at 18 uM incubated for 48 hrs by recrudescence assay; format: functional
Plasmodium falciparum [12] = test: Antiplasmodial activity against synchronized ring stage artemisinin-sensitive Plasmodium falciparum F32 assessed as number of days required to reach 3% initial parasitemia by measuring median recrudescence time at 18 uM incubated for 48 hrs by recrudescence assay; format: functional
[13] = system: Plasmodium vinckei petteri; test: Antiplasmodial activity Plasmodium vinckei petteri infected in female Swiss albino mouse model assessed as reduction in parasitemia administered intraperitoneally for 4 days and measured on day 5; format: functional; conditions: 120 h, route ip, time 5 day
[14] = system: Plasmodium vinckei petteri; test: Antiplasmodial activity Plasmodium vinckei petteri infected in female Swiss albino mouse model assessed as reduction in parasitemia administered orally for 4 days and measured on day 5; format: functional; conditions: 120 h, route po, time 5 day
Plasmodium falciparum [15] = test: Antiplasmodial activity against artemisinin-sensitive Plasmodium falciparum F32 assessed as inhibition of parasite growth incubated for 48 hrs of SYBR green fluorescence-based method; format: functional, organism-based; conditions: F32, 48 h
Plasmodium falciparum [16] = test: Antiplasmodial activity against synchronized ring stage artemisinin-resistant Plasmodium falciparum F32 assessed as number of days required to reach 3% initial parasitemia by measuring median recrudescence time at 0.5 uM incubated for 48 hrs by recrudescence assay; format: functional
Plasmodium falciparum [17] = test: Antiplasmodial activity against synchronized ring stage artemisinin-sensitive Plasmodium falciparum F32 assessed as number of days required to reach 3% initial parasitemia by measuring median recrudescence time at 1 uM incubated for 48 hrs by recrudescence assay; format: functional
Plasmodium falciparum [18] = test: Antiplasmodial activity against synchronized ring stage artemisinin-sensitive Plasmodium falciparum F32 assessed as number of days required to reach 3% initial parasitemia by measuring median recrudescence time at 0.5 uM incubated for 48 hrs by recrudescence assay; format: functional
[19] = system: Plasmodium vinckei petteri; test: Antiplasmodial activity Plasmodium vinckei petteri infected in female Swiss mouse model assessed as reduction in parasitemia at 0.1 mg/kg/day, ip administered for 4 days starting from 4 hrs post infection and measured on day 5 by giemsa staining based analysis; format: functional, organism-based; conditions: time 5.0 day
[20] = system: Plasmodium vinckei petteri; test: Antiplasmodial activity Plasmodium vinckei petteri infected in female Swiss mouse model assessed as reduction in parasitemia at 1 mg/kg/day, ip administered for 4 days starting from 4 hrs post infection and measured on day 5 by giemsa staining based analysis relative to control; format: functional; design: scale not given: the % may be the effect or the level left; conditions: time 5 day
[21] = system: Plasmodium vinckei petteri; test: Antiplasmodial activity Plasmodium vinckei petteri infected in female Swiss mouse model assessed as reduction in parasitemia at 10 mg/kg/day, ip administered for 4 days starting from 4 hrs post infection and measured on day 5 by giemsa staining based analysis; format: functional, organism-based; conditions: time 5.0 day
[22] = system: Plasmodium vinckei petteri; test: Antiplasmodial activity Plasmodium vinckei petteri infected in female Swiss mouse model assessed as reduction in parasitemia at 10 mg/kg/day, ip administered for 4 days starting from 4 hrs post infection and measured on day 30 by giemsa staining based analysis; format: functional, organism-based; conditions: time 30.0 day
[23] = system: Plasmodium vinckei petteri; test: Antiplasmodial activity Plasmodium vinckei petteri infected in female Swiss mouse model assessed as reduction in parasitemia administered intraperitoneally for 4 days starting from 4 hrs post infection and measured on day 30; format: functional; conditions: 720 h, route ip, time 30 day
[24] = Toxicity in female Swiss mouse model infected with Plasmodium vinckei petteri assessed as clinical signs at 0.1 to 10 mg/kg/day, ip administered for 4 days and measured after 30 days; format: organism-based; conditions: in vivo, 720 h, dose 0.1-10 mg/kg/day, time 30 day
[25] = system: Plasmodium vinckei petteri; test: Antiplasmodial activity Plasmodium vinckei petteri infected in female Swiss mouse model assessed as reduction in parasitemia at 25 mg/kg/day, po administered for 4 days starting from 4 hrs post infection and measured on day 5 by giemsa staining based analysis relative to control; format: functional; design: scale not given: the % may be the effect or the level left; conditions: time 5 day
[26] = system: Plasmodium vinckei petteri; test: Antiplasmodial activity Plasmodium vinckei petteri infected in female Swiss mouse model assessed as reduction in parasitemia administered orally for 4 days starting from 4 hrs post infection and measured on day 30; format: functional; conditions: 720 h, route po, time 30 day
Heme [27] = test: Inhibition of heme polymerization in acetate buffer at pH 5 assessed as reduction in beta-hematin formation at 1.2 molar ratio of drug to hemin incubated for 18 hrs by infrared spectroscopic analysis relative to control
[28] = Stability in human plasma assessed as parent compound remaining at 1 uM measured after 2 hrs by LC-MS/MS analysis; format: ADME, cell-free; conditions: read-out: Stability
[29] = Thermal stability at 60 degreeC incubated for 2 months; format: physicochemical; conditions: 1460 h
Plasmodium falciparum [30] = test: Antiplasmodial activity against synchronized ring stage artemisinin-resistant Plasmodium falciparum F32 assessed as decrease in parasite recrudescence by measuring time required for parasites to reach initial parasitemia at […] incubated for 54 hrs by recrudescence assay; format: functional
[31] = Inhibition of recombinant Plasmodium falciparum 3D7 FIKK8 by enzyme-coupled assay
Plasmodium falciparum [32] = test: Antiplasmodial activity against Plasmodium falciparum; format: functional, organism-based
Plasmodium falciparum [33] = test: as §1, with “recrudescence” for “recrudescence by measuring time required for parasites to reach initial parasitemia”; format: functional, organism-based
Heme [34] = test: Inhibition of heme polymerization in acetate buffer at pH 5 assessed as reduction in beta-hematin formation at 5 equiv incubated for 18 hrs by infrared spectroscopic analysis relative to control
Heme [35] = test: Inhibition of heme polymerization in acetate buffer at pH 5 assessed as reduction in beta-hematin formation at 15 equiv incubated for 18 hrs by infrared spectroscopic analysis relative to control
Heme [36] = test: Inhibition of heme polymerization in acetate buffer at pH 5 assessed as reduction in beta-hematin formation at 2.0 molequiv incubated for 18 hrs by infrared spectroscopic analysis relative to control
Heme [37] = test: Inhibition of heme polymerization in acetate buffer at pH 5 assessed as reduction in beta-hematin formation at 10 molequiv incubated for 18 hrs by infrared spectroscopic analysis
Plasmodium falciparum [38] = test: Antiplasmodial activity against synchronized ring stage artemisinin-resistant Plasmodium falciparum F32 assessed as number of days required to reach 3% initial parasitemia by measuring median recrudescence time at 1 uM incubated for 48 hrs by recrudescence assay; format: functional
[39] = Metabolic stability in human liver microsomes at 1 uM measured after 1 hrs by LC-MS/MS analysis; format: ADME, Microsome
[40] = Metabolic stability in human liver microsomes assessed as half-life at 1 uM measured after 1 hrs by LC-MS/MS analysis; format: ADME, Microsome
Plasmodium falciparum [41] = test: Antiplasmodial activity against synchronized ring stage artemisinin-resistant Plasmodium falciparum F32 assessed as decrease in parasite recrudescence by measuring time required for parasites to reach initial parasitemia at 200 nM incubated for 48 hrs by recrudescence assay; format: functional
Plasmodium falciparum [42] = test: as §1, with “200 nM” for “1 uM”; format: functional

Row | Structure (SMILES) | IC50 (Plasmodium falciparum [1]) [nM] | IC50 (Plasmodium falciparum [2]) [nM] | IC50 (Plasmodium falciparum [3]) [nM] | IC50 (Plasmodium falciparum [4]) [nM] | CC50 at 48 h [5] [nM] | selectivity ratio [6] | IC50 (Plasmodium falciparum [15]) [nM] | also measured
1 | O=C1C(O)=C([C@H]2CC[C@H](c3ccc(Cl)cc3)CC2)C(=O)c2ccccc21 [ATOVAQUONE] | 1.9 | 0.7 | 1 | 4700 | 7000 | 3700 |  | Time (Plasmodium falciparum [7]): 16 days; Time (Plasmodium falciparum [8]): 13 days; Time (Plasmodium falciparum [9]): 14 days; Time (Plasmodium falciparum [10]): 20 days
2 | C[C@@H]1CC[C@H]2[C@@H](C)C(=O)O[C@@H]3O[C@@]4(C)CC[C@@H]1[C@]32OO4 [ARTEMISININ] |  |  |  |  |  |  |  | Time (Plasmodium falciparum [11]): 10 days; Time (Plasmodium falciparum [12]): 15 days; ED50 [13]: 4 mg/kg/day; ED50 [14]: 17 mg/kg/day
3 | Cc1cc(O)c2c(c1)C(=O)c1cc(OCCN3CCN(c4ccnc5cc(Cl)ccc45)CC3)cc(O)c1C2=O | 775 |  |  |  | > 10000 | > 13 |  | 
4 | Cc1cc(O)c2c(c1)C(=O)c1cc(OCCOCCNCCNc3ccnc4cc(Cl)ccc34)cc(O)c1C2=O | 54 | 33 | 84 | 24 | 12000 | 222 | 59 | Time (Plasmodium falciparum [16]): 23 days; Time (Plasmodium falciparum [17]): >30 days; Time (Plasmodium falciparum [18]): 26 days; Time (Plasmodium falciparum [10]): >22 days; Activity [19]: inactive; Activity [20]: 17%; Activity [21]: Not active; No Detectable Parasitemia Observed; Activity [22]: Active; Recrudescence Not Observed; ED50 [23]: 4 mg/kg/day; Activity [24]: Non-toxic; Activity [25]: 44%; ED50 [26]: ~25 mg/kg/day; inhibition (Heme [27]): 100%; remaining at 2 h, 1 µM [28]: 100%; Stability [29]: Stable
5 | Clc1ccc2c(N3CCNCC3)ccnc2c1 | 1310 |  |  |  |  |  | 1400 | 
6 | C[C@H]1[C@@H](O)O[C@@H]2O[C@@]3(C)CC[C@H]4[C@H](C)CC[C@@H]1[C@@]24OO3 [ARTENIMOL] |  | 2.5 | 2.6 | 2.4 | 30000 | 12000 | 2.2 | Time (Plasmodium falciparum [30]): 8 days
7 | Cc1cc(O)c2c(c1)C(=O)c1cc(O)cc(O)c1C2=O [EMODIN] | > 50000 |  |  |  | 34000 | < 0.7 |  | IC50 [31]: 2000 nM; IC50 (Plasmodium falciparum [32]): > 10000 nM
8 | CCOCCOc1cc(O)c2c(c1)C(=O)c1cc(C)cc(O)c1C2=O | > 10000 |  |  |  |  |  | > 10000 | Activity (Plasmodium falciparum [33]): inactive; inhibition (Heme [34]): 100%
9 | NCCNc1ccnc2cc(Cl)ccc12 | 54 | 134 | 354 | 2300 | > 50000 | > 925 | 28 | inhibition (Heme [35]): 100%; Activity (Plasmodium falciparum [33]): inactive; inhibition (Heme [36]): inactive; inhibition (Heme [37]): inactive
10 | Cc1cc(O)c2c(c1)C(=O)c1cc(OCCOCCN3CCN(c4ccnc5cc(Cl)ccc45)CC3)cc(O)c1C2=O | 825 |  |  |  | 12000 | 15 |  | 
11 | Clc1ccc([C@@H](c2ccccc2)N2CCN(CCNc3ccnc4cc(Cl)ccc34)CC2)cc1 | 101 | 33 | 53 | 9000 | 14000 | 140 | 75 | Time (Plasmodium falciparum [38]): 12 days; Time (Plasmodium falciparum [17]): 11 days; Time (Plasmodium falciparum [10]): 7 days; inhibition (Heme [36]): 100%; remaining at 2 h, 1 µM [28]: 100%; Stability [39]: Stable; half-life at 1 µM [40]: 46 min; Stability [29]: Stable
12 | CCN(CC)CCCC(C)Nc1ccnc2cc(Cl)ccc12 (configuration not stated) [CHLOROQUINE] |  |  |  |  | > 50000 |  |  | Time (Plasmodium falciparum [41]): >20 days; Time (Plasmodium falciparum [42]): 8 days
13 | Clc1ccc([C@@H](c2ccccc2)N2CCNCC2)cc1 | > 10000 |  |  | 9000 | 20000 | < 2 | 6000 | Activity (Plasmodium falciparum [33]): inactive; inhibition (Heme [36]): inactive; inhibition (Heme [37]): inactive
